Structures are written as SMILES. Like-named read-outs stand apart in the source and are kept apart here. Starred links: 1 amine or outer side, 2 acyl side, 3 side chain; linkers in the order of their positions; H or OH if unused. Positions of bridges follow the written chain, without caps; N, C: chain ends. Non-standard residues stand in square brackets, D forms with d. Residues, ends and D or L forms follow the SMILES beside them. ξ: configuration not given here. X18 = CS(=O)(=O)Nc1ccc(C[C@H](N[*:1])C(=O)[*:2])cc1; Phe(4-CH2NH2) = NCc1ccc(C[C@H](N)C(=O)O)cc1; NMeW = CN[C@@H](Cc1c[nH]c2ccccc12)C(=O)O; Bta = N[C@@H](Cc1csc2ccccc12)C(=O)O; Hyp = O=C(O)[C@@H]1C[C@@H](O)CN1; NMeF = CN[C@@H](Cc1ccccc1)C(=O)O; NMeNle = CCCC[C@H](NC)C(=O)O; NMeA = CN[C@@H](C)C(=O)O; Dab = NCC[C@H](N)C(=O)O; Dap = NC[C@H](N)C(=O)O; ξC = NC(CS)C(=O)O; Sar = CNCC(=O)O Where only a bound is given, the exact number is not on record here.

The target of assay [1] is T1, Human PD-L1/PD-1 (Homo sapiens, UniProt Q9NZQ7).
T1 construct: made in house; host or cells: HEK293T
Kind of assay: HTRF PD-1-Ig/PD-L1-His binding assay (human PD-L1). Conditions: cluster symbol; read-out: HTRF IC50 cluster. The gist of the method:
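Soluble Fc-fused PD-1 and His-tagged PD-L1 (truncated before the transmembrane region) were combined in dPBS with 0.1% (w/v) BSA and 0.05% (v/v) Tween-20. Binding was read by HTRF using europium cryptate anti-Ig antibody (1 nM final) and APC anti-His antibody (20 nM final).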
A general note: In TR-FRET formats the signal depends on donor and acceptor labels being close together.

For assay [2], the target named is T2, LK35.2-hPD-L1 cells / PE-labeled PD-1-Ig (Homo sapiens, UniProt Q9NZQ7).
T2 construct: expressed in transfected cells; host or cells: LK35.2 mouse B cell line
Kind of assay: LK35.2-hPD-L1 cell binding high-content screening assay. It counts as cell-based. Conditions: cluster symbol, read-out: CBA IC50 cluster. The gist of the method:
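Binding of PE-conjugated human PD-1-Ig (1 nM final) to human PD-L1 stably expressed on a mouse B-cell line (LK35.2) was measured by high-content imaging after washes. Compound and labeled PD-1-Ig were co-incubated 1 h at 37 °C with cells in RPMI/10% FCS.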

Where [3] appears, read: cell line of CBA not given (LK35.2-hPD-L1 or 293T-hPD-L1).
Setting [4] is: cell binding assay, cell line not given.

T1 sequence (Q9NZQ7 with tags, fused parts or gaps): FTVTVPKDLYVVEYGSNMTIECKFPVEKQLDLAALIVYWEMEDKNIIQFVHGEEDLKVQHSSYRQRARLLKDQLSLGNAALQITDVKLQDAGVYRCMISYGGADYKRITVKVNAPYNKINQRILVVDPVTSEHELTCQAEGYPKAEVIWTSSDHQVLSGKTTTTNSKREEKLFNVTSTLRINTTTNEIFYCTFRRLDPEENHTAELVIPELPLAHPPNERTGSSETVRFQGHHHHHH
T2 sequence (Q9NZQ7 19-290): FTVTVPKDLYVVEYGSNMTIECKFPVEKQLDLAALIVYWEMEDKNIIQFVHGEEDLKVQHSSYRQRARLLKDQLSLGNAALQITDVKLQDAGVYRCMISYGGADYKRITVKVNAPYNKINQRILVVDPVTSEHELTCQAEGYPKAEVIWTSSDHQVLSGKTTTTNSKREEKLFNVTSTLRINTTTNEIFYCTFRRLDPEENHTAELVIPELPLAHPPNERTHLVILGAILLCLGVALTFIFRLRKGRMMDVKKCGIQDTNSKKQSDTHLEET

Take `CCCC[C@H]1C(=O)N(C)[C@@H](CCCC)C(=O)N[C@@H](CCCNC(=N)N)C(=O)N[C@H](C(=O)NCC(N)=O)CSCC(=O)N[C@@H](Cc2ccc(O)cc2)C(=O)N(C)[C@@H](C)C(=O)N[C@@H](CC(N)=O)C(=O)N2CCC[C@H]2C(=O)N[C@@H](Cc2cnc[nH]2)C(=O)N[C@@H](CC(C)C)C(=O)N2C[C@H](O)C[C@H]2C(=O)N[C@@H](Cc2c[nH]c3ccccc23)C(=O)N[C@@H](CN)C(=O)N[C@@H](Cc2c[nH]c3ccccc23)C(=O)N1C` [Example 1135] ({CH2CO}-Y[NMeA]NPHL[Hyp]W[Dap]W[NMeNle][NMeNle]RCG-NH2; thioether N-14): the figures for the IC50 in assay [1] and in assay [2] (setting [3]) were 0.00676 to 0.0303 µM and 0.000158 to 0.00471 µM, respectively.
In the case of `CCCC[C@H]1C(=O)N(C)[C@@H](CCCC)C(=O)N[C@@H](CCCNC(=N)N)C(=O)NC(C(=O)N[C@@H](CO)C(N)=O)CSCC(=O)N[C@@H](Cc2ccc(O)cc2)C(=O)N(C)[C@@H](C)C(=O)N[C@@H](CC(N)=O)C(=O)N2CCC[C@H]2C(=O)N[C@@H](Cc2cnc[nH]2)C(=O)N[C@@H](CO)C(=O)N2CCC[C@H]2C(=O)N[C@@H](Cc2c[nH]c3ccccc23)C(=O)N[C@@H](CO)C(=O)N[C@@H](Cc2c[nH]c3ccccc23)C(=O)N1C` (some centres unmarked) [Example 9077] ({CH2CO}-Y[NMeA]NPHSPWSW[NMeNle][NMeNle]R[ξC]S-NH2; thioether N-14), the IC50 lay within 0.00676 to 0.0303 µM in assay [1] and 0.00478 to 0.0729 µM in assay [2] (setting [4]).
As for `CCCC[C@H]1C(=O)N(C)CC(=O)N[C@@H](CC(=O)O)C(=O)N[C@@H](C(C)C)C(=O)N(C)[C@@H](Cc2ccccc2)C(=O)N[C@@H](Cc2ccc(O)cc2)C(=O)N(C)CC(=O)N[C@@H](Cc2c[nH]c3ccccc23)C(=O)N[C@@H](Cc2ccc(O)cc2)C(=O)N[C@@H](CCCCN)C(=O)N[C@H](C(=O)NCC(N)=O)CSCC(=O)N[C@@H](Cc2ccccc2)C(=O)N(C)[C@@H](Cc2ccccc2)C(=O)N1C` [Example 3164] (HELM PEPTIDE1{[O=C(C[*:3])[*:2]].F.[meF].[CCCC[C@@H](C(=O)[*:2])N(C)[*:1]].[Sar].D.V.[meF].Y.[Sar].W.Y.K.C.G.[am]}$PEPTIDE1,PEPTIDE1,1:R3-14:R3$$$V2.0), the IC50 fell in the range of 0.00676 to 0.0303 µM in assay [1] and 0.00478 to 0.0729 µM in assay [2] (setting [3]).
For the compound `CCCC[C@H]1C(=O)N(C)[C@@H](CCCC)C(=O)N[C@@H](CCCN)C(=O)N[C@H](C(=O)NCC(N)=O)CSCC(=O)N[C@@H](Cc2ccc(O)cc2)C(=O)N2CC[C@H]2C(=O)N[C@@H](CC(N)=O)C(=O)N2CCC[C@H]2C(=O)N[C@@H](Cc2cnc[nH]2)C(=O)N[C@@H](CC(C)C)C(=O)N2C[C@H](O)C[C@H]2C(=O)N[C@@H](Cc2c[nH]c3ccccc23)C(=O)N[C@@H](CO)C(=O)N[C@@H](Cc2c[nH]c3ccccc23)C(=O)N1C` [Example 1176], the IC50 was in the range of 0.00676 to 0.0303 µM in assay [1] and 0.00478 to 0.0729 µM in assay [2] (setting [3]).
`CCCC[C@H]1C(=O)N(C)[C@@H](CCCC)C(=O)N[C@@H](CO)C(=O)N[C@H](C(=O)NCC(N)=O)CSCC(=O)N[C@@H](Cc2ccc(O)cc2)C(=O)N(C)[C@@H](C)C(=O)N[C@@H](CCN)C(=O)N2CCC[C@H]2C(=O)N[C@@H](Cc2c[nH]cn2)C(=O)N[C@@H](CCC(=O)O)C(=O)N2C[C@H](O)C[C@H]2C(=O)N[C@@H](Cc2c[nH]c3ccccc23)C(=O)N[C@@H](CO)C(=O)N[C@@H](Cc2c[nH]c3ccccc23)C(=O)N1C` [Example 5108] ({CH2CO}-Y[NMeA][Dab]PHE[Hyp]WSW[NMeNle][NMeNle]SCG-NH2; thioether N-14): the IC50 fell in the range of 0.00676 to 0.0303 µM in assay [1] and 0.00478 to 0.0729 µM in assay [2] (setting [4]).
`CCCC[C@H]1C(=O)N(C)CC(=O)N[C@@H](CC(=O)O)C(=O)N[C@@H](C(C)C)C(=O)N(C)[C@@H](Cc2ccccc2)C(=O)N[C@@H](Cc2ccc(O)cc2)C(=O)N(C)CC(=O)N[C@@H](Cc2c[nH]c3ccccc23)C(=O)N[C@@H](Cc2ccc(O)cc2)C(=O)N[C@@H](Cc2ccc(CN)cc2)C(=O)N[C@H](C(=O)NCC(N)=O)CSCC(=O)N[C@@H](Cc2ccccc2)C(=O)N(C)[C@@H](Cc2ccccc2)C(=O)N1C` [Example 3536] ({CH2CO}-F[NMeF][NMeNle][Sar]DV[NMeF]Y[Sar]WY[Phe(4-CH2NH2)]CG-NH2; thioether N-13): the IC50 in assay [1] fell in the range of 0.00676 to 0.0303 µM; in assay [2] (setting [4]) it was 0.00478 to 0.0729 µM.
On to `CCCC[C@H]1C(=O)N(C)[C@@H](CCCC)C(=O)N[C@@H](CCCNC(=N)N)C(=O)N[C@H](C(=O)NCC(N)=O)CSCC(=O)N[C@@H](Cc2ccc(NS(C)(=O)=O)cc2)C(=O)N(C)[C@@H](C)C(=O)N[C@@H](CC(N)=O)C(=O)N2CCC[C@H]2C(=O)N[C@@H](Cc2cnc[nH]2)C(=O)N[C@@H](CC(C)C)C(=O)N(C)CC(=O)N[C@@H](Cc2c[nH]c3ccccc23)C(=O)N[C@@H](CO)C(=O)N[C@@H](Cc2c[nH]c3ccccc23)C(=O)N1C` [Example 1100] ({CH2CO}-[X18][NMeA]NPHL[Sar]WSW[NMeNle][NMeNle]RCG-NH2; thioether N-14), for which the IC50 in assay [1] was above 0.0305 µM; in assay [2] (setting [3]), above 0.0743 µM.
Consider `CCCC[C@H]1C(=O)N[C@@H](CCCNC(=N)N)C(=O)N[C@H](C(=O)NCC(N)=O)CSCC(=O)N[C@@H](Cc2ccccc2)C(=O)N(C)[C@@H](C)C(=O)N[C@@H](CC(N)=O)C(=O)N2CCC[C@H]2C(=O)N[C@@H](Cc2cnc[nH]2)C(=O)N[C@@H](CC(C)C)C(=O)N(C)CC(=O)N[C@@H](Cc2c[nH]c3ccccc23)C(=O)N[C@@H](CO)C(=O)N(C)[C@@H](Cc2c[nH]c3ccccc23)C(=O)N(C)[C@@H](CCCC)C(=O)N1C` [Example 1031] ({CH2CO}-F[NMeA]NPHL[Sar]WS[NMeW][NMeNle][NMeNle]RCG-NH2; thioether N-14), for which the IC50 in assay [1] is above 0.0305 µM; in assay [2] (setting [3]) it was above 0.0743 µM.
As for `CCCC[C@H]1C(=O)N(C)[C@@H](CCCC)C(=O)N[C@@H](CCCNC(=N)N)C(=O)N[C@H](C(=O)NCC(N)=O)CSCC(=O)N[C@@H](Cc2ccc(O)cc2)C(=O)N(C)[C@@H](C)C(=O)N[C@@H](CC(N)=O)C(=O)N2CCC[C@H]2C(=O)N[C@@H](Cc2cnc[nH]2)C(=O)N[C@@H](CCN)C(=O)N2C[C@H](O)C[C@H]2C(=O)N[C@@H](Cc2c[nH]c3ccccc23)C(=O)N[C@@H](CO)C(=O)N[C@@H](Cc2c[nH]c3ccccc23)C(=O)N1C` [Example 5022] ({CH2CO}-Y[NMeA]NPH[Dab][Hyp]WSW[NMeNle][NMeNle]RCG-NH2; thioether N-14), the IC50 in assay [1] was 0.00676 to 0.0303 µM; in assay [2] (setting [4]), 0.000158 to 0.00471 µM.
For `CCCC[C@H]1C(=O)N(C)[C@@H](CCCC)C(=O)N[C@@H](CCCNC(=N)N)C(=O)N[C@H](C(=O)NCC(N)=O)CSCC(=O)N[C@@H](Cc2ccc(O)cc2)C(=O)N(C)[C@@H](C)C(=O)N[C@@H](CC(N)=O)C(=O)N[C@@H](Cc2cnc[nH]2)C(=O)N2CCC[C@H]2C(=O)N[C@@H](CC(C)C)C(=O)N2CCC[C@H]2C(=O)N[C@@H](Cc2c[nH]c3ccccc23)C(=O)N[C@@H](CO)C(=O)N[C@@H](Cc2csc3ccccc23)C(=O)N1C` [Example 1052] ({CH2CO}-Y[NMeA]NHPLPWS[Bta][NMeNle][NMeNle]RCG-NH2; thioether N-14), the half-inhibitory concentration (IC50) was above 0.0305 µM in assay [1] and above 0.0743 µM in assay [2] (setting [3]).

Broadly, the IC50 is the point on the concentration scale where inhibition reaches its midpoint.

The record behind these values is US9850283B2, “Macrocyclic inhibitors of the PD-1/PD-L1 and CD80(B7-1)/PD-L1 protein/protein interactions” (BRISTOL-MYERS SQUIBB COMPANY, priority 2013, dated 2017).
